These results are taken from patent US20230364273A1, “AGENT FOR DETECTING INTERACTION BETWEEN TISSUES AND ORGANS” (HAMAMATSU PHOTONICS K.K., priority 2020, published 2023).

Structures are written as SMILES.

This series deals with mitochondrial complex I (MC-I). Nature of the series: PET measurement of the amount (SUV) of MC-I probe accumulated in each tissue and organ of type 2 diabetes model rats (Test Examples 1 and 2). Format: in vivo. The note with it: brain, heart, brown adipocytes, pancreas, liver, kidneys; 5, 8, 16, 26 weeks of age; i.v. about 20 MBq; except brown adipocytes and kidneys at 5 weeks of age (FIG. 4). The source says: Male Zucker Leprfa/Leprfa rats (hereinafter also referred to as “fatty rats”) that develop pathological conditions similar to type 2 diabetes of human adults and male Zucker Leprfa/+ rats (hereinafter also referred to as “lean rats”) as controls thereof were purchased from Charles River Laboratories Japan, Inc., and used for PET measurement at 5, 8, 16, and 26 weeks of age, and the amount of [^18F]BCPP-BF accumulated in each tissue and organ (brain, heart, kidneys, liver, and brown adipocytes (brown adipose tissue)) was measured.
The rats were anesthetized with isoflurane and fixed in a gantry of an animal PET camera (SHR-38000, manufactured by Hamamatsu Photonics K.K.). […]
After the completion of the PET measurement, a region of interest was set on the pancreas identified by an integrated PET image 40 to 60 minutes after the administration of D-[^11C]MT, and the amount of [^18F]BCPP-BF accumulated in the region of interest was calculated. Subsequently, the calculated accumulation amount was normalized by the amount of radioactivity administered and the body weight of each individual and defined as an amount (amount (SUV) of radioactivity accumulated) of [^18F]BCPP-BF accumulated in the pancreas. […] The amount (SUV) of radioactivity accumulated in the brain was calculated by excising the brains from the rats immediately after the PET measurement. […]

In the case of `CC(C)(C)n1ncc(OCc2ccc(OCCCC[18F])nc2)c(Cl)c1=O` [[^18F]BCPP-BF], the “accumulation amount (SUV) in each tissue and organ, fatty rats versus lean rats” value is recorded as “significantly lower”.
